Entries after “also recorded” stand apart in the source; their conditions may differ. Where two headings read alike, the source gives them in different places.
Tests used:
Type in all cases: cell-based
[1] = system: PC-3 androgen-nonresponsive prostate cancer cells; experiment: MTT cell viability assay, PC-3 cells; settings: Homo sapiens, 5% FBS, read-out: IC50 for suppressing cell viability
Method: (§1) Cell Counting and Cell Viability Assay. LNCaP or PC-3 cells were placed in six-well plates (2.5×10^5 cells/well) in 10% FBS-supplemented RPMI 1640 for 24 h, and treated with various concentrations of compound 12 for additional 24, 48 and 72 h. Cells were then trypsinized and counted by using a Coulter counter (Model Z1 D/T, Beckman Coulter, Fullerton, Calif.). Cell viability was assessed by using the 3-(4,5-dimethylthiazol-2-yl)-2,5-diphenyl-2H-tetrazolium bromide (MTT) assay in six replicates in 96-well plates. LNCaP or PC-3 cells were seeded at 6000 cells per well in 10% FBS-supplemented RPMI 1640 for 24 h, followed by treatments with various compounds in 5% FBS-supplemented RPMI 1640 at the indicated concentrations. Controls received DMSO at a concentration equal to that in drug-treated cells. After the end of incubation, MTT (0.5 mg/ml) in 10% FBS-supplemented RPMI 1640 was added to each well, and cells were incubated at 37° C. for 2 hours. Medium was removed and the reduced MTT dye was solubilized in DMSO (200 μl/well). Absorbance was determined at 570 nm by a 96-well plate reader.

[2] = system: LNCaP cells; experiment: Flow cytometric cell cycle analysis in LNCaP cells; settings: 72 h
Method: Cell Cycle Analysis. LNCaP cells were seeded in 6-well plates ([…]) and treated with different concentrations of compound 12 for 72 h. After extensive washing with PBS, cells were trypsinized followed by fixation in ice-cold 80% ethanol at 4° C. overnight. Cells were then centrifuged for 5 min at 1500×g at room temperature, and stained with propidium iodide (50 μg/ml) and RNase A (100 units/ml) in PBS. Cell cycle phase distributions were determined on a FACScort flow cytometer and analyzed by the ModFitLT V3.0 program.

[3] = system: LNCaP androgen-responsive prostate cancer cells; experiment: MTT cell viability assay, LNCaP cells; settings: for IC50: Homo sapiens, 5% FBS, read-out: IC50 for suppressing cell viability
Method: as §1

[4] = system: androgen receptor (AR) expression; experiment: Western blot analysis of AR protein expression in LNCaP cells
Method: RT-PCR and Immunoblotting. LNCaP cells were cultured in T25 flasks at an initial density of 1×10^6 cells/flask. After exposure to various compounds at the indicated conditions, cells were subject to total RNA isolation by using an RNeasy mini-kit (QIAGEN, Valencia, Calif.). RNA concentrations were determined by measuring absorption at 260 nm in a spectrophotometer. Aliquots of 6 μg of total RNA from each sample were reverse-transcribed to cDNA using an Omniscript RT Kit (QIAGEN) according to the manufacturer's instructions, using suitable primers.
For immunoblotting, protein extracts were prepared by M-PER Mammalian Protein Extraction Reagent (Pierce, Rockford, Ill.) with freshly added 1% phosphatase and protease inhibitor cocktails (Calbiochem) followed by centrifugation at 13,000×g for 10 min. Supernatant was collected and protein concentration was determined by protein assay reagent (Bio-Rad, CA). Protein extracts were then suspended in 2×SDS sample buffer, and subject to 10% SDS-polyacrylamide gels. After electrophoresis, proteins were transferred to nitrocellulose membranes using a semidry transfer cell. The transblotted membrane was washed twice with Tris-buffered saline containing 0.1% Tween 20 (TBST). After blocking with TBST containing 5% nonfat milk for 1 h, the membrane was incubated with mouse monoclonal anti-AR (Santa Cruz) or anti-β-actin (MP Biomedicals) antibodies (diluted 1:1000) in 1% TBST nonfat milk at 4° C. overnight. After incubation with the primary antibody, the membrane was washed three times with TBST for a total of 30 min, followed by incubation with horseradish peroxidase conjugated goat anti-mouse IgG (diluted 1:2500) for 1 h at room temperature. After three thorough washes with TBST for a total of 30 min, the immunoblots were visualized by enhanced chemiluminescence.

[5] = system: PARP cleavage, caspase 3 and caspase 7 activation; experiment: Western blot of apoptosis-related biomarkers in LNCaP cells; settings: 72 h
[6] = system: AR promoter; experiment: AR promoter-luciferase reporter assay in transiently transfected LNCaP cells; settings: compounds at 10 μM, 48 h, ciglitazone and Δ2CG at 20 μM
Description: Transfection and Luciferase assay. The 3.6-kilobase AR promoter-linked reporter plasmid p-3600ARCAT was kindly provided by Dr. Chawnshang Chang (University of Rochester Medical Center, Rochester, N.Y.). The AR promoter gene (−3600 to +550) encompassing the transcription start site was isolated by using PCR to generate hAR-luc with suitable primers. The fragment was subcloned into the pGL3 luciferase reporter vector (Promega, Madison, Wis.) at KpnI and BglII in the multiple cloning site. The PPRE-x3-TK-Luc reporter vector contains three copies of the PPAR-response element (PPRE) upstream of the thymidine kinase promoter-luciferase fusion gene and was kindly provided by Dr. Bruce Spiegelman (Harvard University, Cambridge, Mass.). The pCMVSp1 plasmid was purchased from Origene Technologies, Inc. (Rockville, Md.). LNCaP or PC3 cells were transfected with 5 μg of individual plasmids in an Amaxa Nucleofector using a cell line-specific nucleofector kit according to the manufacturer's protocol (Amaxa Biosystems, Cologne, Germany), and then seeded in 6-well plates at 5×10^5 cells per well for 48 h. The transfection efficiency was determined to be 70-80% by transfecting cells with 2 μg of pmaxGFP plasmid, followed by fluorescence microscopy to measure GFP expression. For each transfection, herpes simplex virus thymidine kinase promoter-driven Renilla reniformis luciferase was used as an internal control for normalization.
For the reporter gene assay, after transfection, cells were cultured in 24-well plates in 10% FBS-supplemented RPMI 1640 medium for 48 h, subject to different treatments for the indicated times, collected, and lysed with passive lysis buffer (Promega). Fifty-μl aliquots of the lysates were added to 96-well plates, and luciferase activity was monitored after adding 100 μl of luciferase substrate (Promega) each well by using a MicroLumatPlus LB96V luminometer (Berthold Technologies, Oak Ridge, Tenn.) with the WinGlow software package. All transfection experiments were carried out in six replicate.

Question: For CC1(CN2C(=O)S/C(=C\c3ccc(O)c(C(F)(F)F)c3)C2=O)CCCCC1 [Compound 12, 5-(4-Hydroxy-3-trifluoromethyl-benzylidene)-3-(1-methyl-cyclohexylmethyl)-thiazolidine-2,4-dione], which IC50 ([1]; 48 h) is on record?
Answer: 15 µM

Question: What about the IC50 ([1]; 72 h) of the same compound?
Answer: 12 µM

Question: And the cell cycle distribution [2]?
Answer: dose-dependent increase in the sub-G1 population, accompanied by decreases in the G2/M phase

Question: What about the “inhibition of LNCaP cell viability (in words)” value ([3]; 48 h) of the same compound?
Answer: optimal agents

Question: And the IC50 ([3]; 48 h)?
Answer: 8 µM

Question: And the IC50 ([3]; 72 h)?
Answer: 3 µM

Question: What about the “AR expression level after compound washed out of the medium” value ([4]; 5 μM, washout then drug-free medium (FIG. 6C)) of the same compound?
Answer: rapidly restored

Question: And the “suppression of AR protein expression (in words)” value ([4]; 10% FBS, 72 h, Western blot)?
Answer: completely inhibited AR expression in LNCaP cells at low μM concentrations; also recorded: an-order-of-magnitude higher potency than ciglitazone

Question: What about the IC50 ([4]; 72-h exposure, Western blot (FIG. 4C), read-out: IC50 for suppressing AR expression) of the same compound?
Answer: ~2 µM

Question: What about the “apoptosis-related biomarkers: PARP cleavage, proteolytic activation of caspase 3 and caspase 7” value [5] of the same compound?
Answer: dose-dependent effects

Question: What about the “suppression of AR promoter-luciferase activity / AR transcription (in words)” value [6] of the same compound?
Answer: optimal agents
